The target in data set [1] is T1, GlyT1b (hGlyT1b; Flag-Glyt1b) (Homo sapiens, UniProt P48067).
T1 sequence (P48067 15-652 isoform P48067-3): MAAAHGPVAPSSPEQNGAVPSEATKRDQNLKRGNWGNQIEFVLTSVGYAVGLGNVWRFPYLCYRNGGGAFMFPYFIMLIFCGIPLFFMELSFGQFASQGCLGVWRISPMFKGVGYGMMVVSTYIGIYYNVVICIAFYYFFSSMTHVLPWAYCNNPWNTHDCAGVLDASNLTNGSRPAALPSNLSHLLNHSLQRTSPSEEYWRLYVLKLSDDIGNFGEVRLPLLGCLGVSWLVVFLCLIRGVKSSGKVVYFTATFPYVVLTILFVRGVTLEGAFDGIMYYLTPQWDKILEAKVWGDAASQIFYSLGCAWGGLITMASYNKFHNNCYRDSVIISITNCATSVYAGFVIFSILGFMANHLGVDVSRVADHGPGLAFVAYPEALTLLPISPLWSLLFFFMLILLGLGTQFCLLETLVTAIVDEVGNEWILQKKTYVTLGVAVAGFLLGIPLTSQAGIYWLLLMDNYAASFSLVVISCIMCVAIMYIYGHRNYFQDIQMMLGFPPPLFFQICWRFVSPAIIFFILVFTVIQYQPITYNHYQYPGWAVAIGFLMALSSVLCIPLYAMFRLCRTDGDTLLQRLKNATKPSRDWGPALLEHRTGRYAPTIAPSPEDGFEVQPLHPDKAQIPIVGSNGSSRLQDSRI
The experiment in a line: displacement of […] [3H]CHIBA-3007, membrane filtration assay. The class given is binding. As to conditions: 150 mM NaCl, 10 mM HEPES pH 7.4, RT.

Substrate in data set [2]: NCC(=O)O
The experiment in a line: [3H]glycine uptake into transfected HEK MSR cells. As to conditions: 0.05-200 µM glycine. Format: cell-based, Homo sapiens.

2 molecules from article doi:10.1101/2020.08.20.259572v2 (biorxiv, 2020) can be followed below.

A word on the Km: it is the substrate concentration at which the rate is half of its maximum.

Turning to `NCC(=O)O` [glycine], the KI in data set [1] amounted to 330 ± 10 µM.

B1: GlyT1b (hGlyT1b; Flag-Glyt1b) (Homo sapiens) (protein)
chain: T1 sequence (P48067 15-652 isoform P48067-3)
Take B1: the Km in data set [2] amounted to 35.2 ± 2.1 µM.
